Assay results: PMC6100082, “Pyridine-Ureas as Potential Anticancer Agents: Synthesis and In Vitro Biological Evaluation” (Molecules : A Journal of Synthetic Chemistry and Natural …, 2018)

Experiments:
[1] = test system: HS 578T; experiment: NCI one-dose SRB assay (Breast Cancer); type: cell-based, human
Procedure: (§1) The structures of all the newly prepared pyridine-ureas 8a–n were submitted to the National Cancer Institute (NCI) Developmental Therapeutic Program. Eight compounds 8b, 8d, 8e, 8i, 8j and 8l–n were selected to be examined for their in vitro growth inhibitory activity. The anticancer assays were carried out according to the protocol of the Drug Evaluation Branch, NCI, Bethesda. The selected pyridine-ureas were tested at one dose primary anticancer assay against a panel of approximately 58 cancer lines (concentration 10^−5 M). The tested human cancer cell lines emerged from nine different cancer subtypes: leukemia, colon, melanoma, ovarian, lung, CNS, renal, breast and prostate cancers. The sulforhodamine B (SRB) protein assay was adopted to estimate the cell viability and growth. The results were reported as mean-graph of the percentage growth of the treated cells, and presented as percentage growth inhibition (GI%) caused by the test compounds (Table 2).
(§2) The anticancer assays were performed in accordance with the protocol of the Drug Evaluation Branch, NCI, Bethesda. A 48 h drug exposure protocol was used and sulforhodamine B (SRB) protein assay was applied to estimate the cell viability and growth, as reported earlier.

[2] = test system: BT-549; experiment: NCI one-dose SRB assay (Breast Cancer); type: cell-based, human
Procedure: as §1, §2

[3] = test system: MCF7; experiment: NCI one-dose SRB assay (Breast Cancer); type: cell-based, human
Procedure: as §1, §2

[4] = test system: MDA-MB-468; experiment: NCI one-dose SRB assay (Breast Cancer); type: cell-based, human
Procedure: as §1, §2

[5] = test system: T-47D; experiment: NCI one-dose SRB assay (Breast Cancer); type: cell-based, human
Procedure: as §1, §2

[6] = test system: MDA-MB-231; experiment: NCI one-dose SRB assay (Breast Cancer); type: cell-based, human
Procedure: as §1, §2

[7] = test system: NCI-H226; experiment: NCI one-dose SRB assay (Non-Small Cell Lung Cancer); type: cell-based, human
Procedure: as §1, §2

[8] = test system: NCI-H322M; experiment: as above; type: cell-based, human
Procedure: as §1, §2

[9] = test system: HOP-92; experiment: as above; type: cell-based, human
Procedure: as §1, §2

[10] = test system: NCI-H460; experiment: as above; type: cell-based, human
Procedure: as §1, §2

[11] = test system: A549/ATCC; experiment: as above; type: cell-based, human
Procedure: as §1, §2

[12] = test system: EKVX; experiment: as above; type: cell-based, human
Procedure: as §1, §2

[13] = test system: NCI-H23; experiment: as above; type: cell-based, human
Procedure: as §1, §2

[14] = test system: HOP-62; experiment: as above; type: cell-based, human
Procedure: as §1, §2

[15] = test system: NCI-H522; experiment: as above; type: cell-based, human
Procedure: as §1, §2

[16] = test system: NCI 58 cell line panel; experiment: NCI one-dose SRB assay, whole panel / subpanel summary; type: cell-based, human
Procedure: as §1, §2

[17] = test system: PC-3; experiment: NCI one-dose SRB assay (Prostate); type: cell-based, human
Procedure: as §1, §2

[18] = test system: DU-145; experiment: NCI one-dose SRB assay (Prostate); type: cell-based, human
Procedure: as §1, §2

[19] = test system: OVCAR-4; experiment: NCI one-dose SRB assay (Ovarian Cancer); type: cell-based, human
Procedure: as §1, §2

[20] = test system: OVCAR-5; experiment: NCI one-dose SRB assay (Ovarian Cancer); type: cell-based, human
Procedure: as §1, §2

[21] = test system: OVCAR-3; experiment: NCI one-dose SRB assay (Ovarian Cancer); type: cell-based, human
Procedure: as §1, §2

[22] = test system: SNB-19; experiment: NCI one-dose SRB assay (CNS Cancer); type: cell-based, human
Procedure: as §1, §2

[23] = test system: SF-539; experiment: NCI one-dose SRB assay (CNS Cancer); type: cell-based, human
Procedure: as §1, §2

[24] = test system: SF-268; experiment: NCI one-dose SRB assay (CNS Cancer); type: cell-based, human
Procedure: as §1, §2

[25] = test system: SNB-75; experiment: NCI one-dose SRB assay (CNS Cancer); type: cell-based, human
Procedure: as §1, §2

[26] = test system: SF-295; experiment: NCI one-dose SRB assay (CNS Cancer); type: cell-based, human
Procedure: as §1, §2

[27] = test system: U251; experiment: NCI one-dose SRB assay (CNS Cancer); type: cell-based, human
Procedure: as §1, §2

[28] = Homo sapiens, 10 μM, read-out: Percentage growth inhibition (GI%)

COc1ccc(-c2ccc(NC(=O)Nc3ccc(Cl)c(C(F)(F)F)c3)c(C)n2)cc1 [Compound 8e, 1-(4-Chloro-3-(trifluoromethyl)phenyl)-3-(6-(4-methoxyphenyl)-2-methylpyridin-3-yl)urea]
melting point: 195 to 197 °C | Growth Percent ([1]; 1.00E-5 Molar): 76.98% | inhibition at 10 µM [1, 28]: 24% | Growth Percent ([2]; BT-549, 1.00E-5 Molar): 66.19% | inhibition at 10 µM ([2]; Homo sapiens, BT-549, 10 μM, read-out: Percentage growth inhibition (GI%)): 34% | inhibition at 10 µM ([3]; Homo sapiens, MCF7, 10 μM, read-out: Percentage growth inhibition (GI%)): 64% | Growth Percent ([3]; MCF7, 1.00E-5 Molar): 36.68% | inhibition at 10 µM ([4]; Homo sapiens, MDA-MB-468, 10 μM, read-out: Percentage growth inhibition (GI%)): 62% | Growth Percent ([4]; MDA-MB-468, 1.00E-5 Molar): 38.52% | Growth Percent ([5]; 1.00E-5 Molar): 21.49% | inhibition at 10 µM ([5]; Homo sapiens, T47D, 10 μM, read-out: Percentage growth inhibition (GI%)): 79% | inhibition at 10 µM ([6]; Homo sapiens, MDA-MB-231, 10 μM, read-out: Percentage growth inhibition (GI%)): 15% | Growth Percent ([6]; MDA-MB-231/ATCC, 1.00E-5 Molar): 85.04% | inhibition at 10 µM ([7]; Homo sapiens, NCI-H226, 10 μM, read-out: Percentage growth inhibition (GI%)): 35% | Growth Percent ([7]; NCI-H226, 1.00E-5 Molar): 65.24% | Growth Percent ([8]; 1.00E-5 Molar): 71.44% | inhibition at 10 µM [8, 28]: 29% | Growth Percent ([9]; HOP-92, 1.00E-5 Molar): 27.03% | inhibition at 10 µM ([9]; Homo sapiens, HOP-92, 10 μM, read-out: Percentage growth inhibition (GI%)): 73% | inhibition at 10 µM ([10]; Homo sapiens, NCI-H460, 10 μM, read-out: Percentage growth inhibition (GI%)): 70% | Growth Percent ([10]; NCI-H460, 1.00E-5 Molar): 30.90% | Growth Percent ([11]; 1.00E-5 Molar): 38.71% | inhibition at 10 µM [11, 28]: 62% | Growth Percent ([12]; 1.00E-5 Molar): 49.19% | inhibition at 10 µM [12, 28]: 51% | inhibition at 10 µM ([13]; Homo sapiens, NCI-H23, 10 μM, read-out: Percentage growth inhibition (GI%)): 70% | Growth Percent ([13]; NCI-H23, 1.00E-5 Molar): 30.94% | Growth Percent ([14]; HOP-62, 1.00E-5 Molar): 62.10% | inhibition at 10 µM ([14]; Homo sapiens, HOP-62, 10 μM, read-out: Percentage growth inhibition (GI%)): 38% | inhibition at 10 µM ([15]; Homo sapiens, NCI-H522, 10 μM, read-out: Percentage growth inhibition (GI%)): 76% | Growth Percent ([15]; NCI-H522, 1.00E-5 Molar): 24.81% | inhibition at 10 µM ([16]; Homo sapiens, 10 μM, one dose, read-out: mean inhibition (mean % growth inhibition over NCI 58 cell line panel)): 49% | Mean Growth Percent ([16]; One Dose Mean Graph, 1.00E-5 Molar): 51.42% | inhibition at 10 µM ([17]; Homo sapiens, PC-3, 10 μM, read-out: Percentage growth inhibition (GI%)): 86% | Growth Percent ([17]; PC-3, 1.00E-5 Molar): 14.67% | Growth Percent ([18]; DU-145, 1.00E-5 Molar): 54.52% | inhibition at 10 µM ([18]; Homo sapiens, DU-145, 10 μM, read-out: Percentage growth inhibition (GI%)): 46% | inhibition at 10 µM ([19]; Homo sapiens, OVCAR-4, 10 μM, read-out: Percentage growth inhibition (GI%)): 55% | Growth Percent ([19]; OVCAR-4, 1.00E-5 Molar): 45.11% | inhibition at 10 µM ([20]; Homo sapiens, OVCAR-5, 10 μM, read-out: Percentage growth inhibition (GI%)): 11% | Growth Percent ([20]; OVCAR-5, 1.00E-5 Molar): 89.11% | inhibition at 10 µM ([21]; Homo sapiens, OVCAR-3, 10 μM, read-out: Percentage growth inhibition (GI%)): 73% | Growth Percent ([21]; OVCAR-3, 1.00E-5 Molar): 27.65% | inhibition at 10 µM ([22]; Homo sapiens, SNB-19, 10 μM, read-out: Percentage growth inhibition (GI%)): 43% | Growth Percent ([22]; SNB-19, 1.00E-5 Molar): 57.33% | inhibition at 10 µM ([23]; Homo sapiens, SF-539, 10 μM, read-out: Percentage growth inhibition (GI%)): 19% | Growth Percent ([23]; SF-539, 1.00E-5 Molar): 81.32% | inhibition at 10 µM ([24]; Homo sapiens, SF-268, 10 μM, read-out: Percentage growth inhibition (GI%)): 27% | Growth Percent ([24]; SF-268, 1.00E-5 Molar): 73.73% | inhibition at 10 µM ([25]; Homo sapiens, SNB-75, 10 μM, read-out: Percentage growth inhibition (GI%)): 27% | Growth Percent ([25]; SNB-75, 1.00E-5 Molar): 73.44% | inhibition at 10 µM ([26]; Homo sapiens, SF-295, 10 μM, read-out: Percentage growth inhibition (GI%)): 54% | Growth Percent ([26]; SF-295, 1.00E-5 Molar): 46.97% | inhibition at 10 µM ([27]; Homo sapiens, U-251, U251, 10 μM, read-out: Percentage growth inhibition (GI%)): 67% | Growth Percent ([27]; U251, 1.00E-5 Molar): 33.63%
